Series [1] deals with T1, Neutrophil elastase (Homo sapiens) (UniProt P08246).
T1 sequence (whole entry): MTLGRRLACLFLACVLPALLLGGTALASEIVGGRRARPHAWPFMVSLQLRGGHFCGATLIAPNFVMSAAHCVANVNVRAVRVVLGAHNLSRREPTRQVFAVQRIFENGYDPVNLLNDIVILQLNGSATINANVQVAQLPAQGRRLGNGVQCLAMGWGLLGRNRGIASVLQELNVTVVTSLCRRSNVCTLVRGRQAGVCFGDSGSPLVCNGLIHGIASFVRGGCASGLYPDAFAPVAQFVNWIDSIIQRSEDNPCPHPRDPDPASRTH
Description: Inhibition of Elastase using Suc-Ala-Ala-Pro-Ala-pNA as substrate, activity expressed as Kobs/[I] (second order rate constant)

Series [2] is described as follows: Tested for chemical stability of the compound. Format: physicochemical.
A further series concerns the target T2, Neutrophil elastase (Homo sapiens, UniProt P08246).
T2 sequence (P08246 whole entry): T1 sequence (whole entry)
Put plainly: Tested in vitro for its inhibitory effect against Elastase using Suc-Ala--Ala-Pro-Ala-pNA as substrate.

Series [3] has as its system Cricetinae gen. sp. Put plainly: Tested in vivo for inhibition of hamster lung hemorrhage after intratracheal administration at 2 hr prior to challenge with HLE (human leukocyte elastase). The format is functional, Cricetulus griseus.
In series [4] the test system is Cricetinae gen. sp. The series is described as follows: Tested in vivo for inhibition of hamster lung hemorrhage after intratracheal administration at 3h prior to challenge with HLE (human leukocyte elastase). Format: functional, Cricetulus griseus.
For series [5], the system named is Cricetinae gen. sp. The series is described as follows: Tested in vivo for inhibition of hamster lung hemorrhage after intratracheal administration at 1 hr prior to challenge with HLE (human leukocyte elastase). The format is functional, Cricetulus griseus.
Series [6] addresses T1, Neutrophil elastase (Homo sapiens). The series is described as follows: Tested in vitro for its inhibitory effect against Human leukocyte elastase using Suc-Ala--Ala-Pro-Ala-pNA as substrate, activity expressed as Kobs/[I] (second order rate constant).
In series [7] the test system is Cricetinae gen. sp. Put plainly: Tested in vivo for inhibition of hamster lung hemorrhage after intratracheal administration at 3h prior to challenge with HLE(human leukocyte elastase). The format is functional, Cricetulus griseus.

Here are results for 18 compounds from ChEMBL document CHEMBL1127140, “Inhibition of human leukocyte elastase. 7. Inhibition by 6-substituted penicillin amides” (Bioorg Med Chem Lett, 1993).

In general, half-life refers to the time in which the quantity being followed falls by half. The low end stands for rapid decline, the high end for slow decline. `CC1(C)[C@H](C(=O)OCc2ccc(C(=O)O)cc2)N2C(=O)[C@H](NC(=O)C(F)(F)F)[C@H]2S1(=O)=O` returned a K obs / 1 in series [1] of 89000 M⁻¹ s⁻¹. The compound further gave a half-life in series [2] of 1.1 h.

In the case of `CN(Cc1ccc(C(=O)O)cc1)C(=O)[C@@H]1N2C(=O)[C@H](NC(=O)C(F)(F)F)[C@H]2S(=O)(=O)C1(C)C`, the K obs / 1 in series [1] was 5400 M⁻¹ s⁻¹. This compound showed a half-life in series [2] of 4.2 h.

For `CN(C(=O)C(F)(F)F)[C@H]1C(=O)N2[C@@H](C(=O)OCc3ccc(C(=O)O)cc3)C(C)(C)S(=O)(=O)[C@H]12`, in series [1], the K obs / 1 was 5700 M⁻¹ s⁻¹.

The term Ki denotes the equilibrium dissociation constant of an inhibitor or competing ligand from its target. On to `CN(CC(=O)O)C(=O)[C@@H]1N2C(=O)[C@@H](NC(=O)C(F)(F)F)[C@H]2S(=O)(=O)C1(C)C`, for which the affinity on Neutrophil elastase, expressed as Ki, was 50 µM.

On to `CC1(C)[C@H](C(=O)OCc2ccc(C(=O)O)cc2)N2C(=O)[C@@H](NC(=O)C(F)(F)F)[C@H]2S1(=O)=O`, for which, in series [1], the K obs / 1 came out at 7100 M⁻¹ s⁻¹. Also, the half-life in series [2] was 1.1 h.

Broadly, the Inhibition is the relative decrease from the control value, in per cent. As for `CO[C@H]1C(=O)N2C(C(=O)N(C)CC(=O)O)=C(COC(C)=O)CS(=O)(=O)[C@H]12`, the Inhibition with Cricetinae gen. sp. [3] was found to be 80%; in the series on Cricetinae gen. sp. [4], 54%; in the series with Cricetinae gen. sp. [5] it was 97%.

Turning to `CN(CC(=O)O)C(=O)[C@@H]1N2C(=O)[C@H](NC(=O)C(F)(F)F)[C@H]2S(=O)(=O)C1(C)C`, the half-life in series [2] is 4.8 h. The affinity on Neutrophil elastase corresponds to a Ki of 14 µM.

For the compound `CO[C@H]1C(=O)N2[C@@H](C(=O)OCc3ccc(C(=O)O)cc3)C(C)(C)S(=O)(=O)[C@H]12`, the half-life in series [2] is below 1 h. The same compound registered a K obs / 1 in series [6] of 5600 M⁻¹ s⁻¹.

With `CC1(C)[C@H](C(=O)N2CCC[C@@H]2C(=O)O)N2C(=O)[C@H](NC(=O)C(F)(F)F)[C@H]2S1(=O)=O`, the K obs / 1 in series [1] was 26 M⁻¹ s⁻¹.

On to `CN(Cc1ccc(C(=O)O)cc1)C(=O)[C@@H]1N2C(=O)[C@H](NC(=O)C(F)(F)F)[C@@H]2[S+]([O-])C1(C)C` (stereo partly drawn), for which the K obs / 1 in series [1] is 1100 M⁻¹ s⁻¹. For the same compound, in series [2], the half-life was 8.6 h.

In series [2], `CC1(C)[C@H](C(=O)OCc2ccc(C(=O)O)cc2)N2C(=O)[C@H](NC(=O)C(F)(F)F)[C@H]2[S+]1[O-]` (stereo partly drawn) gave a half-life of 1.4 h. Besides, the affinity on Neutrophil elastase corresponds to a Ki of 1.5 µM.

As for `CO[C@H]1C(=O)N2[C@@H](C(=O)N(C)CC(=O)O)C(C)(C)S(=O)(=O)[C@H]12`, affinity on Neutrophil elastase was put at a Ki of 53 µM.

Take `CN(Cc1ccc(C(=O)O)cc1)C(=O)[C@@H]1N2C(=O)[C@@H](NC(=O)C(F)(F)F)[C@H]2S(=O)(=O)C1(C)C`: the K obs / 1 in series [1] was found to be 275 M⁻¹ s⁻¹. For the same compound, in series [2], the half-life was 4.5 h.

Take `CCO[C@H]1C(=O)N2[C@@H](C(=O)OCc3ccc(C(=O)O)cc3)C(C)(C)S(=O)(=O)[C@H]12`: the affinity on Neutrophil elastase corresponds to a Ki of 1.3 µM.

`CO[C@H]1C(=O)N2C(C(=O)N3CCC[C@H]3C(=O)O)=C(COC(C)=O)CS(=O)(=O)[C@H]12` came in with a K obs / 1 in series [1] of 3800 M⁻¹ s⁻¹. Besides, the Inhibition with Cricetinae gen. sp. [3] is on record as 97%; in the series with Cricetinae gen. sp. [7], 78%; in the series with Cricetinae gen. sp. [5], 99%.

For the compound `CN(Cc1ccc(C(=O)O)cc1)C(=O)[C@@H]1N2C(=O)[C@H](NC(=O)C(F)(F)F)[C@H]2[S+]([O-])C1(C)C` (stereo partly drawn), the K obs / 1 in series [1] stood at 60 M⁻¹ s⁻¹. Further, in series [2], the half-life is 8.2 h.

Compound `CC1(C)[C@H](C(=O)OCc2ccc(C(=O)O)cc2)N2C(=O)[C@H](NC(=O)C(F)(F)F)[C@@H]2[S+]1[O-]` (stereo partly drawn) gave a K obs / 1 in series [1] of 4900 M⁻¹ s⁻¹. In series [2], this compound gave a half-life of 5.3 h.

On to `CC1(C)[C@H](C(=O)N2CCC[C@@H]2C(=O)O)N2C(=O)[C@@H](NC(=O)C(F)(F)F)[C@H]2S1(=O)=O`, for which, on Neutrophil elastase, the inhibitory constant (Ki) worked out at 22 µM.
